What was measured:
Assay type in all cases: cell-based, human
HCT116 cells = test: MTT proliferation assay HCT116; settings: 24 and 48 h; MC3353 from 0.5 μM after 48 h; DAC at 10 μM
Method: The MTT [3-(4,5-dimethylthiazol-2-yl)-2,5-diphenyltetrazolium bromide] (Sigma-Aldrich, Milan, Italy) assay was used to determine the proliferation of HCT116 clone and DKO HCT116 cells after treatment with MC3353, 5-AZA, and DAC. 5 × 10^4 cells/well for both cell lines were plated in 24-well plate and treated, in duplicate, with compounds at several concentrations for 24 and 48 h of induction. After treatments, MTT solution was added for 3 h at 0.5 mg/mL, the purple formazan crystals were dissolved in DMSO (Sigma-Aldrich, Milan, Italy), and the absorbance was read at a wavelength of 570 nm with reader TECAN M-200.

[1] = system: methylated UCHL1 promoter EGFP reporter in HCT116 cells; test: UCHL1 promoter demethylation assay (EGFP expression, FACS) in HCT116; settings: 5 days, HCT116 with methylated pUCHL1 vector
Method: Human colon cancer HCT116 (ATCC, VA, USA) cells were propagated in McCoy’s 5A medium (Euroclone, Milan, Italy) with 10% fetal bovine serum (FBS; Euroclone), 2 mM L-glutamine (Euroclone), and antibiotics (100 U/mL penicillin, 100 µg/mL streptomycin) (Euroclone). For the treatments with MC3353, 5-AZA, and DAC as positive controls, 2 × 10^4 cells were seeded in 6-well plates in triplicate. Cells were treated every 2 days, and the medium was changed. On day 5, cells were observed under a fluorescent microscope. The nuclei were counterstained with DAPI (10 μg/mL, Invitrogen, Tournai, Belgium).
Fluorescence of EGFP and DAPI in living cells was analyzed by Cytation™ 5 Cell Imaging Multi-Mode Reader (BioTeK, Milan, Italy).
Before the transfection, the pUMLIEP vector was linearized by with ClaI restriction enzyme (New England Biolabs, Milan, Italy) and then it was methylated by SssI-methylase (New England Biolabs, Milan, Italy) for 60 min. The methylated vector was transfected into HCT116 cells using Lipofectamine™2000 (Invitrogen, Monza, Italy) and Opti-MEM® (Gibco, Monza, Italy), and stably introduced clones were selected with puromycin (1.0 μg/mL, Sigma-Aldrich, Milan, Italy). The detailed protocol for the generation of cells highly responsive to DNA demethylating agents is described in [27].
Next, the demethylating activity of MC3353 was evaluated in cells transfected with luciferase and EGFP reporter genes driven by the UCHL1 promoter. The UCHL1 promoter is silenced by methylation in human colon cancer and can be demethylated by specific treatments, inducing expression of Metridia luciferase and EGFP reporter genes. In particular, the pUCHL1 vector, after methylation, was transfected into HCT116 colon cancer cells, and the stable clone was obtained by puromycin selection. Afterwards, cells were treated with 5-AZA (5 μM), with DAC (5 μM), or with MC3353 (0.1 μM) for 5 days. Such a low MC3353 dose was used because of its cytotoxicity at higher concentrations in long treatments.

[2] = system: E-cadherin mRNA in PC-3 cells; test: qPCR of E-cadherin in PC-3; settings: MC3353 24 h; 5-AZA, DAC 5 days, effect from 1 to 5 μM
Text: (§1) RNAs were extracted by ReliaPrep™ RNA Tissue Miniprep (Promega, Madison, WI, USA) and reverse transcribed with PrimeScript RT Master Mix (Takara, Kusatsu, Shiga, Japan). cDNAs were amplified by a qPCR reaction using GoTaq qPCR Master Mix (Promega) and analyzed with the oligonucleotide pairs specific for the target genes. Relative amounts, determined with the 2^(−ΔCt) method, were normalized with respect to the human housekeeping gene L32. The primers used are as follows: L32 (forward: 5′-[…]-3′, reverse: 5′-[…]-3′), E-cadherin (forward: 5′-[…]-3′, reverse: 5′-[…]-3′), and MMP2 (forward: 5′-[…]-3′, reverse: 5′-[…]-3′).
(§2) Prompted by these findings, we investigated the ability of MC3353 to modulate EMT pathway, using 5-AZA and DAC as reference drugs. […] The levels of mRNA transcripts of E-cadherin and matrix metalloproteinase-2 (MMP2) were determined. E-cadherin is involved in the maintenance of the epithelial identity and in the control of tumor invasiveness, whereas MMP2, through degradation of type IV collagen, the most abundant component of the basement membrane, controls an essential step for metastatic progression of most cancers as well as for induction of angiogenesis.

MMP2 mRNA in PC-3 cells = test: qPCR of MMP2 in PC-3; settings: MC3353 0.1 and 1 μM 24 h; 5-AZA, DAC 5 days, also at 0.1 to 1 μM
Text: as §1, §2

[3] = system: E-cadherin mRNA in HCT116 cells; test: qPCR of E-cadherin in HCT116; settings: MC3353 0.1 μM 24 h; 5-AZA, DAC every 2 days for 5 days at 0.1, 1, 5 μM
Text: as §1, §2

Row | SMILES | effect on HCT116 proliferation (MTT) (HCT116 cells) | EGFP gene expression induction (FACS) ([1]; 5 μM) | E-cadherin mRNA expression, PC-3 [2] | MMP2 mRNA expression, PC-3 (MMP2 mRNA in PC-3 cells) | E-cadherin mRNA expression, HCT116 [3] | EGFP gene expression induction (FACS) ([1]; 0.1 μM)
1 | Nc1ncn([C@H]2C[C@H](O)[C@@H](CO)O2)c(=O)n1 [DAC, 5-aza-2′-deoxycytidine, reference compound] | modest proliferation inhibition | 49.7% | able to induce E-cadherin expression | increased MMP2 level | able to induce E-cadherin expression | –
2 | O=C(Nc1ccc(NC(=O)c2ccc(Nc3ccnc4ccccc34)cc2)cc1)OCc1ccccc1 [MC3353, Benzyl (4-(4-(quinolin-4-ylamino)benzamido)phenyl)carbamate] | markedly decreased HCT116 proliferation | – | this effect was observed only at 1 μM dose | strongly downregulated | induced E-cadherin mRNA expression transcripts | 81.4%
